From US10688099B2, “Methods for modulating the amount of RNA transcripts” (PTC Therapeutics, Inc., priority 2013, dated 2020)

System: RNA isoforms in PNN 1-46 SMA type I patient-derived fibroblasts
Assay: RNA Abundance Modulation (RNA isoform abundance, iFPM, HiSeq RNA sequencing)
Format: cell-based, human
Conditions: 3 μM
Description: Cells from a cell line of interest are cultured in conditions sufficient to yield the number of cells capable of generating enough RNA for subsequent sequencing steps. Cells from the tested cell line are contacted with a compound described herein.
To culture said cells, they are seeded, at appropriate concentrations in a volume of media in a cell culture container and incubated for 4, 5, 6, 7, 8, 9, 10, or more hours. A concentrated solution of compound in a vehicle (e.g., DMSO) is then added in sufficient volume to result in the intended final concentration of the compound, for example 100 nM, 500 nM, 1 μM, 5 μM, 10 μM, 15 μM, 20 μM, or more. The cells may also be treated with vehicle alone, as a control. A number of replicates of each concentration or control may be made (e.g., 2 replicates). The cells are then incubated at a constant temperature appropriate for cell culture of the particular cell line (e.g., 37° C.) for 6, 12, 18, 24, 48, or more hours. After incubation, the growth medium is removed and the cells are washed with the appropriate buffer (e.g., PBS). Cells are then removed from adherence to the cell culture container by treatment with a solution containing trypsin, and the trypsin subsequently quenched with the appropriate volume of buffer (e.g., DMEM-FBS). The cells are then pelleted with gentle centrifugation (e.g., ≤90×g centrifugal force) and resuspended in a buffer to lyse the cells for extraction of RNA. The cell lysates may then be frozen (e.g., at −80° C.) or, alternately, may immediately be used in a procedure to purify the RNA (e.g. by use of the RNEASY PLUS® minikit). The RNA from cell lysates is eluted in the appropriate volume of buffer (e.g., RNEASE-FREE H2O®). The resulting purified RNA may then be sequenced (e.g., using RNASeq) or analyzed using a human exon array (e.g., by GENECHIP® human exon array) to determine changes in the RNA levels in those cells treated with compound compared to those cells treated only with DMSO. The purified RNA may also be quantified by other methods known in the art.
Using the RNA data obtained from sequencing, exon array, or other methods, a statistical analysis can reveal changes in the RNA levels of compound-treated compared with control. For example, t-test p-values may be calculated for the data obtained through sequencing and exon array methods in order to compare compound-treated cells to those treated with the DMSO control. […] Analysis of the sequencing and exon array data may then also yield predictions about the cause of the aberrant amount of an RNA transcript in the cells (e.g., perturbation of RNA splicing, RNA transcription, or RNA stability). These predictions may be further confirmed by methods known in the art. For example, RT-PCR and RT-qPCR may be used to confirm the change in amount of RNA transcripts for one or more particular transcripts of interest.
Following the methods described above in Example 1, PNN 1-46 SMA type I patient-derived fibroblasts were treated with 300 nM or 3 μM Compounds 774 and 808 in 0.5% DMSO.
700,000 cells were seeded in 10 mL of medium (DMEM plus 10% FBS) in a T-75 flask. Cells were allowed to attach for at least 4 hrs, after which 50 μL of a 200× compound solution (100% DMSO) was added to each well, and the plate was incubated at 37° C. for 24 hrs.
At the end of the incubation period, the supernatant was removed and the cells where washed with PBS. TrypLE (Invitrogen) express solution was added (e.g. 1.5 mL per one T75 flask). The flasks were incubated for 3 to 5 min at 37° C. The trypsin was then quenched, e.g., by adding 10 mL DMEM-FBS.
Next, the cells were pelleted using gentle centrifugation without exceeding 90×g centrifugal force. The supernatant was removed and the cell pellet was re-suspended in 600 μL RLT buffer (the RLT buffer was supplemented with beta-mercaptoethanol according to the RNeasy protocol manual) by pipetting up and down until the pellet was completely dissolved […]

CCc1nc(C)cn2nc(-c3cc(=O)n4cc(C5CCN(C)CC5)cc(C)c4n3)cc12 [Compound 774]
L2FC (x + 1) (TRAPPC12 AK094181): 0.288
L2abs (Cpd-DMSO) (TRAPPC12 AK094181): 2.20
abs (Cpd-DMSO) (TRAPPC12 AK094181): 5 iFPM
amp FC (x + 1) (TRAPPC12 AK094181): 1.22
ave Cpd (TRAPPC12 AK094181): 24 iFPM
FC (x + 1) (TRAPPC12 AK098327): 0.0066
L2FC (x + 1) (TRAPPC12 AK098327): −7.244
L2abs (Cpd-DMSO) (TRAPPC12 AK098327): 7.23
abs (Cpd-DMSO) (TRAPPC12 AK098327): 151 iFPM
amp FC (x + 1) (TRAPPC12 AK098327): 151.58
ave Cpd (TRAPPC12 AK098327): 0 iFPM
FC (x + 1) (TRAPPC12 NM_016030): 1.2575
L2FC (x + 1) (TRAPPC12 NM_016030): 0.331
L2abs (Cpd-DMSO) (TRAPPC12 NM_016030): 7.32
abs (Cpd-DMSO) (TRAPPC12 NM_016030): 160 iFPM
amp FC (x + 1) (TRAPPC12 NM_016030): 1.26
ave Cpd (TRAPPC12 NM_016030): 781 iFPM
FC (x + 1) (TRIM2 BC025417): 0.7534
L2FC (x + 1) (TRIM2 BC025417): −0.408
L2abs (Cpd-DMSO) (TRIM2 BC025417): 0.61
abs (Cpd-DMSO) (TRIM2 BC025417): 2 iFPM
amp FC (x + 1) (TRIM2 BC025417): 1.33
ave Cpd (TRIM2 BC025417): 4 iFPM
FC (x + 1) (TRIM2 NM_015271): 1.1211
L2FC (x + 1) (TRIM2 NM_015271): 0.165
L2abs (Cpd-DMSO) (TRIM2 NM_015271): 7.65
abs (Cpd-DMSO) (TRIM2 NM_015271): 201 iFPM
amp FC (x + 1) (TRIM2 NM_015271): 1.12
ave Cpd (TRIM2 NM_015271): 1858 iFPM
FC (x + 1) (TRIM2 NM_001130067): 0.0184
L2FC (x + 1) (TRIM2 NM_001130067): −5.763
L2abs (Cpd-DMSO) (TRIM2 NM_001130067): 5.74
abs (Cpd-DMSO) (TRIM2 NM_001130067): 53 iFPM
amp FC (x + 1) (TRIM2 NM_001130067): 54.29
ave Cpd (TRIM2 NM_001130067): 0 iFPM
FC (x + 1) (TRIM65 NM_173547): 1.6613
L2FC (x + 1) (TRIM65 NM_173547): 0.732
L2abs (Cpd-DMSO) (TRIM65 NM_173547): 7.49
abs (Cpd-DMSO) (TRIM65 NM_173547): 179 iFPM
amp FC (x + 1) (TRIM65 NM_173547): 1.66
ave Cpd (TRIM65 NM_173547): 449 iFPM
FC (x + 1) (TRIM65 NM_001256124): 0.0055
L2FC (x + 1) (TRIM65 NM_001256124): −7.514
L2abs (Cpd-DMSO) (TRIM65 NM_001256124): 7.51
abs (Cpd-DMSO) (TRIM65 NM_001256124): 182 iFPM
amp FC (x + 1) (TRIM65 NM_001256124): 182.75
ave Cpd (TRIM65 NM_001256124): 0 iFPM
FC (x + 1) (TSPAN2 GU971730): 0.3567
L2FC (x + 1) (TSPAN2 GU971730): −1.487
L2abs (Cpd-DMSO) (TSPAN2 GU971730): 4.19
abs (Cpd-DMSO) (TSPAN2 GU971730): 18 iFPM
amp FC (x + 1) (TSPAN2 GU971730): 2.80
ave Cpd (TSPAN2 GU971730): 9 iFPM
FC (x + 1) (TSPAN2 NM_005725): 0.3229
L2FC (x + 1) (TSPAN2 NM_005725): −1.631
L2abs (Cpd-DMSO) (TSPAN2 NM_005725): 8.17
abs (Cpd-DMSO) (TSPAN2 NM_005725): 288 iFPM
amp FC (x + 1) (TSPAN2 NM_005725): 3.10
ave Cpd (TSPAN2 NM_005725): 136 iFPM
FC (x + 1) (U2SURP AK057679): 1.1346
L2FC (x + 1) (U2SURP AK057679): 0.182
L2abs (Cpd-DMSO) (U2SURP AK057679): 4.73
abs (Cpd-DMSO) (U2SURP AK057679): 27 iFPM
amp FC (x + 1) (U2SURP AK057679): 1.13
ave Cpd (U2SURP AK057679): 223 iFPM
FC (x + 1) (U2SURP AK296440): 0.9747
L2FC (x + 1) (U2SURP AK296440): −0.037
L2abs (Cpd-DMSO) (U2SURP AK296440): 2.77
abs (Cpd-DMSO) (U2SURP AK296440): 7 iFPM
amp FC (x + 1) (U2SURP AK296440): 1.03
ave Cpd (U2SURP AK296440): 261 iFPM
FC (x + 1) (U2SURP BC006474): 0.9155
L2FC (x + 1) (U2SURP BC006474): −0.127
L2abs (Cpd-DMSO) (U2SURP BC006474): 6.85
abs (Cpd-DMSO) (U2SURP BC006474): 115 iFPM
